We go through one molecule from article PMC6100113, “Involvement of CYP4F2 in the Metabolism of a Novel Monophosphate Ester Prodrug of Gemcitabine and Its Interaction Potential In Vitro” (Molecules : A Journal of Synthetic Chemistry and Natural …, 2018).

Series [1] can be described thus: Metabolic stability in human hepatocytes. In kind it is in vitro ADME. The note with it: human hepatocytes 1 × 10^6 cell/mL, 1 μM, 37 °C. As for the experimental part:
For stability evaluation in human hepatocytes, cryopreserved primary human hepatocytes were revived according to vendor’s protocol and diluted to a density of 1 × 10^6 cell/mL with William’s Medium. The reaction was started with the addition of Compound-3 (1 μM). At specified time points, aliquots of 25 μL of the reaction mixtures were transferred into 100 μL ice-cold acetonitrile containing the internal standard. The samples were then centrifuged, and aliquots of 10 μL of the supernatants were transferred onto LC-MS/MS for the analysis of Compound-3 levels and its metabolites.

For another series, the system named is alkaline phosphatase. Briefly: Hydrolysis of Compound-3 by alkaline phosphatase (gemcitabine formation). Set-up: key to detected in matrix ALP: √: metabolites were detected by high-resolution mass spectrometry. In kind it is in vitro ADME. Here is the method: Compound-3 was incubated with alkaline phosphatase, and the linearity of gemcitabine formation as a function of time and protein concentration was first examined. The reaction mixtures consisted of alkaline phosphatase, 100 mM phosphate buffer (pH 7.4) and Compound-3 (10 μM). The final volume of the incubation mixture was 200 μL. The mixture was warmed up at 37 °C for 2 min prior to the initiation of the reaction with the addition of the enzyme. At specified time points, 25 μL of the incubation mixtures was added to 100 μL cold acetonitrile containing the internal standard to terminate the reaction. Levels of gemcitabine were determined by LC-MS/MS. […] Compound-3 was tested at concentrations ranging from 0 to 200 μM. Kinetic parameters of Compound-3 in alkaline phosphatase were calculated using GraphPad Prism (Version 6.0, GraphPad Software Inc., San Diego, CA) and nonlinear regression analysis. Equation used was as the following (the Michaelis-Menten equation):V = (Vmax × [S])/(Km + [S])(1) where V is the rate of metabolite formation, Vmax is the maximum velocity, Km is the Michaelis constant (substrate concentration at 0.5 Vmax), and [S] is the substrate concentration.

Series [2] can be described thus: Stability in human plasma. In kind it is in vitro ADME. The note with it: 1 μM, 37 °C. Here is the method: For stability testing in plasma, the reaction was started with the addition of Compound-3 (1 µM). At specified time points, aliquots of 25 µL of the reaction mixtures were transferred into 100 μL ice-cold acetonitrile containing the internal standard. The samples were then centrifuged, and aliquots of 10 µL of the supernatants were transferred onto LC-MS/MS for the analysis of Compound-3 levels.

The nature of series [3]: Metabolic stability in human liver microsomes. The note with it: 1 μM. The class given is in vitro ADME. As for the experimental part:
(§1) Stability of Compound-3 was first investigated in microsomal systems from human and rat. The microsomal protein and Compound-3 concentrations were optimized to 0.2 mg/mL and 1 µM, respectively. Before the start of the incubation, reaction mixtures containing phosphate buffer (100 mM, pH 7.4), microsomes and Compound-3 in a total volume of 50 µL were warmed up at 37 °C for 10 min. The reaction was started with the addition of NADPH at a final concentration of 1 mM. Incubations were terminated at a specified time with the addition of 100 µL ice-cold acetonitrile containing the internal standard. The samples were then centrifuged, and aliquots of 10 µL of the supernatants were transferred into liquid chromatography-tandem mass spectrometry (LC-MS/MS) for the analysis of Compound-3 levels.

In series [4] the test system is human equilibrative transporter 1 (hENT1). The note with it: cited from earlier work.
A short description of series [5]: Metabolite identification by UPLC/Triple TOF MS in human hepatocytes. In kind it is in vitro ADME. Set-up: key: √: metabolites were detected by high-resolution mass spectrometry. The note with it: Compound-3 10 μM, 1 × 10^6 cell/mL, 60 min, HRMS. Here is the method: For metabolite identification, a higher concentration of Compound-3 (10 μM) was incubated with liver microsomes (1 mg/mL) in the presence of NADPH (1 mM) and primary human hepatocytes at a density of 1 × 10^6 cell/mL. Samples were collected at 0 min and 60 min with the addition of ice-cold acetonitrile. After vortexing and centrifugation, the supernatant was transferred into a new tube and evaporated to dryness. The samples were then reconstituted in 100 μL of water and methanol (v/v, 9:1). An aliquot of 10 μL of reconstituted solution was injected into UPLC/Triple TOF 5600^+ MS for metabolite identification.
Identification of Compound-3 metabolites was carried out using Acquity UPLC/Triple TOF 5600^+ system. Chromatographic separation for Compound-3 and its metabolites were achieved by an Acquity UPLC HSS T3 column (100 × 2.1 mm i.d., […]; Waters Corp.) maintained at 40 °C. The mobile phase was a mixture of 0.02% formic acid in 5 mM ammonium acetate (A) and methanol (B). The gradient elution was started from 2% B and maintained for 4 min, then increased linearly to 75% B over the next 4 min and maintained for 8 min. […] The flow rate was 0.4 mL/min and the eluent was monitored by UV detection at 280 nm.
For mass detection, a Triple TOF 5600^+ mass spectrometer (AB Sciex, Framingham, MA, USA) was operated in positive ion electrospray (ES-positive) mode with the source temperature at 500 °C and scan range from m/z 100 to 1000 Da. Other parameters were set as follows: ion spray voltage, 5500 V; decluttering potential, 80 V; curtain gas, 40 psi; ion source gas 1, 55 psi; and ion source gas 2, 50 psi. Collision energies of 25 and 65 eV were used for TOF MS and product ion scans, respectively, and a collision energy spread of 20 was used in the MS/MS analysis. Information-dependent acquisition (IDA), together with real-time multiple mass defect filter, was used to trigger acquisition of MS/MS spectra.

A short description of series [6]: Metabolic stability in human intestinal microsomes. The class given is in vitro ADME. The note with it: human intestinal microsomes 0.2 mg/mL, with NADPH, 1 μM, 37 °C. As for the experimental part:
as §1

The subject of series [7] is H460 tumor xenograft (non-small cell lung cancer). The note with it: cited from earlier work.
A short description of series [8]: Metabolite identification by UPLC/Triple TOF MS in rat intestinal microsomes. The class given is in vitro ADME. Also noted: key: √: metabolites were detected by high-resolution mass spectrometry. The note with it: Compound-3 10 μM, NADPH, 60 min, HRMS.
The mark [9] stands for this setting: alkaline phosphatase 0.1 mg/mL protein, 60 min, 37 °C, Michaelis-Menten.

Structures are written as SMILES.

With `CCCCCCCCCCCCCCCCCCOCCOP(=O)(O)OCC1OC(n2ccc(N)nc2=O)C(F)(F)C1O` (stereo not drawn) [Compound-3], the “disappearance after 60 min incubation” value was ~ 30% in [1]; “more than 70%” in series [3] (human liver microsomes 0.2 mg/mL, with NADPH, 37 °C, 60 min); above 50% in [6]. Besides, in the series with alkaline phosphatase (setting [9]), the Km (as a rule, the concentration of substrate that gives half-maximal velocity) turned out to be 57.2 µM. For the same molecule, the “Vmax of gemcitabine formation” value in the series with alkaline phosphatase (setting [9]) was 60.8 pmol/min/mg-protein. In addition, the “detected in matrix ALP” value in the series on alkaline phosphatase (incubation of Compound-3 with alkaline phosphatase, HRMS) is listed as “√”. Further, in series [2], the disappearance in plasma entry is “did not display noticeable disappearance”. The “stability in microsomes in the absence of NADPH” value in series [3] (human and rat liver and intestinal microsomes, absence of NADPH) is recorded as “relatively stable”. For the same molecule, in [4], the “cellular uptake limitation by hENT1” value is “low propensity to be limited”. The “detected in matrix Human Hepatocytes” value in series [5] is on record as “√”. In addition, the “oral activity in tumor xenograft model” value in series [7] is “orally active”. Moreover, in series [8], the “detected in matrix RIM” value is “√”.
